The text below walks through data of patent publication US10800774B2, “Heterocyclic inhibitors of ATR kinase” (Board of Regents, The University of Texas System, priority 2017, dated 2020).

Molecules are shown by their SMILES.

The target in one assay is ATR/ATRIP complex (Homo sapiens (Human), UniProt Q13535). Put plainly: ATR/ATRIP enzymatic assay (Caliper-based). It counts as biochemical. Particulars: FAM-labeled RAD17 peptide, ATP; read-out: ATR/ATRIP Enzyme IC50. The method, then:
Human full-length FLAG-TEV-ATR and His6-ATRIP were co-expressed in HEK293 cells. […] The sample was loaded into a column, and then washed with buffer A three times. Protein was subsequently eluted with 2 ml of buffer B (buffer A+200 μg/ml 3×FLAG peptide).
The ability of new chemical matter to inhibit the ATR catalytic activity in this ATR/ATRIP complex was assessed using a Caliper-based assay. A 2× enzyme solution (i.e., 4 nM enzyme) was prepared using 1× Kinase Reaction Buffer (25 mM HEPES pH 8, 0.0055% Brij-35, 10 mM MnCl2, and 1 mM DTT). […] 10 μL of the 2× enzyme solution was transferred to an assay plate containing 60 nL of test compound (from a 3× serial dilution) in 100% DMSO. Following a 30 minute incubation at 28° C., 10 μL of the 2× peptide solution was then transferred to the same assay plate. The reaction was allowed to incubate at 28° C. for 6 hours. After adding […] of stop buffer (100 mM HEPES pH 7.5, 0.015% Brij-35, 0.2% Coating-3 Reagent (PerkinElmer, catalog # PN760050), and 50 mM EDTA), data were collected on a Caliper instrument. Conversion values were converted to inhibition values via the following equation: % inhibition=(max−conversion)/(max−min)*100, whereby “max” corresponds to the DMSO control and “min” corresponds to the low control. IC50 values were calculated using the following equation in XLFit: Y=Bottom+(Top−Bottom)/1+(IC50/X)^HillSlope).

The test system of assay [1] is ATR-driven phosphorylation of Chk1 kinase at Serine 345 in HT-29 cells. The assay can be described thus: pCHK1 cellular assay (CHK1 p-Ser345 AlphaScreen SureFire). Particulars: Homo sapiens, HT-29, read-out: pCHK1 Cell IC50. For orientation: Alpha assays give light when donor and acceptor beads are brought close together.
Experimental: The microplate was incubated overnight (approximately 20 hours) at 37° C. with 5% CO2 and ambient 02. Stock solutions of the test compounds were prepared in 100% DMSO (Sigma, Catalog # D2650) and serially diluted 1:3 using 100% DMSO. Compounds were additionally diluted 1:33 in culture medium, and 10 ul/well were transferred to the tissue culture plate. Following the compound addition the microplate was incubated at 37° C. for 90 minutes. […] The cells were then washed with PBS and lysed using 10 uL/well […] ® Kit lysis buffer diluted to 1× in water (PerkinElmer Catalog # TGRCHK1S50K), with mixing on an orbital shaker at 500 rpm for 20 min at RT. Lysates were frozen at −20° C. overnight.
The pCHK1 ALPHASCREEN® signal was measured using an ENVISION® plate reader (PerkinElmer). IC50 values were calculated using a four-parameter logistic curve fit using Genedata Screener software. Percent of control for each compound concentration was calculated by the following formula: 100*(Compound-Min)/(Max-Min) where “Max” is the high control, DMSO, and “Min” is the low control, 5 uM ATR inhibitor.

Sequence of ATR/ATRIP complex (Q13535 whole entry): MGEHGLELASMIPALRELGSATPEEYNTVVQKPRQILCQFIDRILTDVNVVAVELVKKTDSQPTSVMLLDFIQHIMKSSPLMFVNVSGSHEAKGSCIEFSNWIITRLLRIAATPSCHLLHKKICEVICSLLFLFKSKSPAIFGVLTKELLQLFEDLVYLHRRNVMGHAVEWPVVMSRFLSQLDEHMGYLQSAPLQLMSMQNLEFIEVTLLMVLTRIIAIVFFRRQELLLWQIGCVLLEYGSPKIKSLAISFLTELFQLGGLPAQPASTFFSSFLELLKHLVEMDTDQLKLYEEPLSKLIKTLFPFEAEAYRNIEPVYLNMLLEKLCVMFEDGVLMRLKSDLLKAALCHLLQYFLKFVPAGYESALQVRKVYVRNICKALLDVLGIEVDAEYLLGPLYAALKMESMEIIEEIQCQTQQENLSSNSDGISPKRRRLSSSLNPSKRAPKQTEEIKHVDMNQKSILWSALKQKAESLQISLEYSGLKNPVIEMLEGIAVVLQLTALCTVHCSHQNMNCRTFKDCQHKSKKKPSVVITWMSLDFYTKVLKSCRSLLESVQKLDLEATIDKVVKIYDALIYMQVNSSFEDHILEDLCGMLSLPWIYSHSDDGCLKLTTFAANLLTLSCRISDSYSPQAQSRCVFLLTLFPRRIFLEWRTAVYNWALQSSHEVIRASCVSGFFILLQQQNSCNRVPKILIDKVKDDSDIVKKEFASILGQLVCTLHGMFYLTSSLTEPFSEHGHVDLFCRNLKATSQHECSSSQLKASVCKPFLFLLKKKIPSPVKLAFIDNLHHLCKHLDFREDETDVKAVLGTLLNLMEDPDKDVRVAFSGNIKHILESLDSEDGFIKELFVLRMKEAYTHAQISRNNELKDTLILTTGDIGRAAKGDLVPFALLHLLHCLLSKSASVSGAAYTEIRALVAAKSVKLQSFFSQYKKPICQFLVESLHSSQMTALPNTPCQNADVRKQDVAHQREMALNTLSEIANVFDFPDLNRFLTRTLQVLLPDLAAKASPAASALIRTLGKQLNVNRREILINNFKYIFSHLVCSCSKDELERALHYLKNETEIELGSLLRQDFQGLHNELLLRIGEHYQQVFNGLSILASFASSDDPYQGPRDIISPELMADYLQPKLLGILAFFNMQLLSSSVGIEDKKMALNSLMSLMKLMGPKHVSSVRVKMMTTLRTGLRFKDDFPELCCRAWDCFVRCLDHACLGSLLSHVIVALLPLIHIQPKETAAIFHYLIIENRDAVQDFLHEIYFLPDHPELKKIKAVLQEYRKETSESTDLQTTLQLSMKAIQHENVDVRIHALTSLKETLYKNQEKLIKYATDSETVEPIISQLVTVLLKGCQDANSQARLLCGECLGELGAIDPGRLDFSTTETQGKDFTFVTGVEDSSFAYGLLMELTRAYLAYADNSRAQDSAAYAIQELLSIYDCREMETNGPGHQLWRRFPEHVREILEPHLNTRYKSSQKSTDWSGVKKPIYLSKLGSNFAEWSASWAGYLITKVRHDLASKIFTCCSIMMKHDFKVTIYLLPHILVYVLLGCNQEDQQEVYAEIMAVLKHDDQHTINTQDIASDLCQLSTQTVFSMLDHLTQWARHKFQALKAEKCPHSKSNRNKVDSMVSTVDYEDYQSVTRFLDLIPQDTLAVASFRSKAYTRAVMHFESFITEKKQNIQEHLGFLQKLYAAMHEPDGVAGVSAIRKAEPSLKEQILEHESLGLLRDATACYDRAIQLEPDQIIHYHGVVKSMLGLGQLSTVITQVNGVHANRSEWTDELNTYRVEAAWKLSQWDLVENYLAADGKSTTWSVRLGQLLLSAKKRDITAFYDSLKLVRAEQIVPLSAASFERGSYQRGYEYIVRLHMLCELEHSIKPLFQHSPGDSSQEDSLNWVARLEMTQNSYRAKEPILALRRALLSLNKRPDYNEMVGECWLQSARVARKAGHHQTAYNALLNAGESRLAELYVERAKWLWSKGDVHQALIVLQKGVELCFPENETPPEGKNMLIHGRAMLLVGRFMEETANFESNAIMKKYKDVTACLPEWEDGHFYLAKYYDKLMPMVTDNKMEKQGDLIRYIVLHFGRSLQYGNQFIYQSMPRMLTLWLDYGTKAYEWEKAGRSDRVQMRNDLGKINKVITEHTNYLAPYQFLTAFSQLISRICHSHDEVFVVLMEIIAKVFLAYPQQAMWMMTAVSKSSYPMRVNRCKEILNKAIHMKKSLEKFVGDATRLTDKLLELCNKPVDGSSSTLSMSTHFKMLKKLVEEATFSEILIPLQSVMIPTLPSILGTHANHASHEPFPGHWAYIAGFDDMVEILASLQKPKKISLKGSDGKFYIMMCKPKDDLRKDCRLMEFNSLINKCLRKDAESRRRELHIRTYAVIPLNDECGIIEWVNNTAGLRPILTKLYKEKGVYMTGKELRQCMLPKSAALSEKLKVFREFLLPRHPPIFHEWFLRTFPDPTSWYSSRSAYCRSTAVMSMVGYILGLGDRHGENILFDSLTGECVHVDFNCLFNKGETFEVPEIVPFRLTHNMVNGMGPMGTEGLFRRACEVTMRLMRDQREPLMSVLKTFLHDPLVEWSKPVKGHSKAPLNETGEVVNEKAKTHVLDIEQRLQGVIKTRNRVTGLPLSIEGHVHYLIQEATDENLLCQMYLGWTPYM
Sequence of ATR/ATRIP complex (Q8WXE1 whole entry partner): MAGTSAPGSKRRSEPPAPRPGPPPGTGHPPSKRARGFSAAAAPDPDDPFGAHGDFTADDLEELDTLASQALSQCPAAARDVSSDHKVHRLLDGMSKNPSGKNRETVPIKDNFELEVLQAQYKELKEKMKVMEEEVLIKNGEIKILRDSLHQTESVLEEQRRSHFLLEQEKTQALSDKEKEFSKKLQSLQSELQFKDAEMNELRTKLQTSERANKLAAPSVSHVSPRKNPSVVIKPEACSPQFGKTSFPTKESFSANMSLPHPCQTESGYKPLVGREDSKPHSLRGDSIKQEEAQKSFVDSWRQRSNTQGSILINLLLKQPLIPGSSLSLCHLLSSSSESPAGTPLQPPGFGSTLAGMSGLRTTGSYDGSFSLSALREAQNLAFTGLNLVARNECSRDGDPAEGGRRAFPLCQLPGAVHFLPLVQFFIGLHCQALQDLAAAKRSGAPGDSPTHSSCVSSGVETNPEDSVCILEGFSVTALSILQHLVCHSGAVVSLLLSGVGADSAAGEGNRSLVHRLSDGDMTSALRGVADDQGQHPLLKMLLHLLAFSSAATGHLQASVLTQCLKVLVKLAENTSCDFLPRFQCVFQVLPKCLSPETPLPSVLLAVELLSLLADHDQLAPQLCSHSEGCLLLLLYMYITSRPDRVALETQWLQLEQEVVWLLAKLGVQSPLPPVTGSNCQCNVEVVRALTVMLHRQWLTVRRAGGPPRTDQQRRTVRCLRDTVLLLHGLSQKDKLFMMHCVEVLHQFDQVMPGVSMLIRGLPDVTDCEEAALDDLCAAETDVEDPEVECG

Regarding `C[C@@H]1COCCN1c1cc([C@H]2CCCS2(=O)=O)nc(-c2cc(Cl)nc3[nH]ccc23)n1` (single isomer, unassigned) [Example 5b], the IC50 was 0.072 µM on ATR/ATRIP complex and 0.435 µM in assay [1].

Take `COCC(=O)N1CCC(c2cc(N3CCOC[C@H]3C)nc(-c3ccnc4[nH]ccc34)n2)CC1` [Example 24, 2-Methoxy-1-(4-{6-[(3R)-3-methylmorpholin-4-yl]-2-{1H-pyrrolo[2,3-b]pyridin-4-yl}pyrimidin-4-yl}piperidin-1-yl) ethan-1-one]: the IC50 on ATR/ATRIP complex stood at 0.013 µM; in assay [1], 0.085 µM.

Turning to `COC(=O)N1CCC(c2cc(N3CCOC[C@H]3C)nc(-c3ccnc4[nH]ccc34)n2)CC1` [Example 13, Methyl 4-{6-[(3R)-3-methylmorpholin-4-yl]-2-{1H-pyrrolo[2,3-b]pyridin-4-yl}pyrimidin-4-yl}piperidine-1-carboxylate], the figures for the IC50 (on ATR/ATRIP complex; in assay [1]) were 0.01 µM and 0.186 µM, respectively.

Turning to `CC(=O)N1CCCC(c2cc(N3CCOC[C@H]3C)nc(-c3ccnc4[nH]ccc34)n2)C1` (stereo partly drawn) [Example 15, 1-(3-{6-[(3R)-3-Methylmorpholin-4-yl]-2-{1H-pyrrolo[2,3-b]pyridin-4-yl}pyrimidin-4-yl}piperidin-1-yl) ethan-1-one], the IC50 came out at 0.01 µM on ATR/ATRIP complex and 0.21 µM in assay [1].
